Source: ChEMBL document CHEMBL1131966, “On topography and functionality in the B-D rings of cephalostatin cytotoxins” (Bioorg Med Chem Lett, 1999)
pEC50, pIC50: −log10 of the molar value.

Tests used:
P388 = test: In vitro cytotoxicity against P388 leukemic cell line following a 6 day exposure.; assay type: functional, cell-based; settings: Mus musculus, P388, 144 h
A549 [1] = test: In vitro cytotoxicity against Lung A-549 human tumors following a 2 day exposure.; assay type: functional; settings: A549, 48 h
A498 [2] = test: In vitro cytotoxicity against Renal A-498 human tumors following a 2 day exposure.; assay type: functional; settings: A498, 48 h
SF-295 = test: In vitro cytotoxicity against CNS SF-295 human tumors following a 2 day exposure.; assay type: functional; settings: SF-295, 48 h
HT-29 [3] = test: In vitro cytotoxicity against Colon HT-29 human tumors following a 6 day exposure.; assay type: functional; settings: HT-29, 144 h, read-out: ED50 (the source's name)
HL-60 = test: In vitro cytotoxicity against HL-60 leukemia human tumors following a 2 day exposure.; assay type: functional; settings: HL-60, 48 h
HT-29 [4] = test: In vitro cytotoxicity against Colon HT-29 human tumors following a 2 day exposure.; assay type: functional; settings: HT-29, 48 h
Homo sapiens [5] = species: Homo sapiens; test: In vitro cytotoxicity against Breast avg 1-3 types of human tumors following a 6 day exposure.; assay type: functional; settings: 144 h, read-out: ED50 (the source's name)
IGROV-1 = test: In vitro cytotoxicity against Ovary IGROVIg OVI human tumors following a 2 day exposure.; assay type: functional; settings: IGROV-1, 48 h
LOX IMVI = test: In vitro cytotoxicity against Skin LOX IMVI human tumors following a 2 day exposure.; assay type: functional; settings: 48 h
MCF7 = test: In vitro cytotoxicity against Breast MCF-7 human tumors following a 2 day exposure.; assay type: functional; settings: 48 h
[6] = system: Panel NCI-60 (60 carcinoma cell lines); test: In vitro cytotoxicity against a subset of 60 cell lines (NCI-60) in human tumors following a 2 day exposure. Values in parentheses is the % cell lines affected.; assay type: functional; settings: 48 h
NCI [7] = test: In vitro cytotoxicity against a subset of 10 cell lines (NCI-10) in human tumors following a 2 day exposure. Values in parentheses is the % cell lines affected.; assay type: functional; settings: 48 h
PC-3 [8] = test: In vitro cytotoxicity against prostate PC-3 human tumors following a 2 day exposure.; assay type: functional; settings: PC-3, 48 h
RXF 393 = test: In vitro cytotoxicity against Renal RXF-393 human tumors following a 2 day exposure.; assay type: functional; settings: RXF 393, 48 h
Homo sapiens [9] = species: Homo sapiens; test: In vitro cytotoxicity against various human tumors (6-8 lines) as determined in the Purdue cell culture laboratory, following a 6 day exposure; assay type: functional; settings: 144 h, read-out: ED50 (the source's name)
[10] = (§1) In vitro cytotoxicity against […] PACA-2 human tumors following a 6 day exposure; assay type: functional; settings: PaCa-2, 144 h, read-out: ED50 (the source's name)
PC-3 [11] = test: In vitro cytotoxicity against prostate PC-3 human tumors following a 6 day exposure; assay type: functional; settings: PC-3, 144 h, read-out: ED50 (the source's name)
A498 [12] = test: In vitro cytotoxicity against Renal A-498 human tumors following a 6 day exposure.; assay type: functional; settings: A498, 144 h, read-out: ED50 (the source's name)
A549 [13] = test: In vitro cytotoxicity against Lung A-549 human tumors following a 6 day exposure.; assay type: functional; settings: A549, 144 h, read-out: ED50 (the source's name)
MIA PaCa-2 = test: as §1; assay type: functional; settings: MIA PaCa-2, 144 h, read-out: ED50 (the source's name)
NCI [14] = test: In vitro cytotoxicity against a subset of 10 cell lines (NCI-10) in human tumors following a 2 day exposure; ND is no data; assay type: functional; settings: 48 h

SMILES | pIC50 (P388) | GI50 (A549 [1]) | GI50 (A498 [2]) | GI50 (SF-295) | pEC50 (HT-29 [3]) | GI50 (HL-60) | GI50 (HT-29 [4]) | pEC50 (Homo sapiens [5]) | GI50 (IGROV-1) | GI50 (LOX IMVI) | GI50 (MCF7) | GI50 [6] | GI50 (NCI [7]) | GI50 (PC-3 [8]) | GI50 (RXF 393) | also measured
CC(=O)O[C@H]1CC2Cc3nc4c(nc3C[C@]2(C)C2C[C@@H](O)[C@@]3(C)C(=CC5O[C@]6(CC[C@](C)(O)CO6)[C@@H](C)C53O)C21)CC1CCC2C(C[C@@H](O)[C@@]3(C)C2CC2OC5(CCC(C)(C)O5)[C@@H](C)C23)[C@@]1(C)C4 (stereo partly specified) | 7.02 | – | – | – | – | – | – | – | – | – | – | – | – | – | – | –
C[C@H]1C2C(CC3C4CCC5Cc6nc7c(nc6C[C@]5(C)C4CC(=O)[C@@]32C)CC2CC(=O)C3C4=CC5O[C@]6(CC[C@](C)(O)CO6)[C@@H](C)C5(O)[C@@]4(C)[C@H](O)CC3[C@@]2(C)C7)OC12CCC(C)(C)O2 (stereo partly specified) | 7.72 | – | – | – | – | – | – | – | – | – | – | – | – | – | – | –
CC1C2(O)C(C=C3C4CCC5Cc6nc7c(nc6C[C@]5(C)C4C[C@@H](O)[C@@]32C)CC2CCC3C4=CC5OC6(CCC(C)(C)O6)[C@@H](C)C5[C@@]4(C)[C@H](O)CC3[C@@]2(C)C7)O[C@]12CC[C@](C)(O)CO2 (stereo partly specified) | – | 76 nM | 0.55 nM | 1.2 nM | 10.92 | 1.2 nM | > 650 nM | 10.44 | > 1000 nM | 12 nM | 37 nM | > 34 nM | 4.2 nM | 12 nM | 0.55 nM | –
C[C@@H]1C2(OC3C=C4C5CCC6Cc7nc8c(nc7C[C@]6(C)C5C[C@@H](O)[C@]4(C)C31O)CC1CCC3C4=CCC5[C@H](C)[C@@]6(OC[C@]45[C@H](O)CC3[C@@]1(C)C8)OC(C)(C)C[C@H]6O)O[C@](C)(CO)C[C@H]2O (stereo partly specified) | – | – | – | – | 11.92 | – | – | 11.96 | – | – | – | – | – | – | – | –
C[C@H]1C2C(C[C@H]3C4CCC5Cc6nc7c(nc6C[C@]5(C)C4C[C@@H](O)[C@]23C)CC2CCC3C4=CC5O[C@]6(CC[C@](C)(O)CO6)[C@@H](C)C5(O)[C@@]4(C)[C@H](O)CC3[C@@]2(C)C7)OC12CCC(C)(C)O2 (stereo partly drawn) [14-EPI-7'-DEOXYRITTERAZINE B] | – | 76 nM | > 300 nM | 9.3 nM | – | > 660 nM | > 650 nM | – | > 1000 nM | 45 nM | 56 nM | > 105 nM | > 55 nM | 40 nM | 4.1 nM | –
C[C@@H]1[C@]2(O[C@H]3C=C4[C@@H]5CC[C@H]6Cc7nc8c(nc7C[C@]6(C)[C@H]5C[C@@H](O)[C@]4(C)[C@]31O)C[C@@H]1CC[C@H]3C4=CC[C@@H]5[C@H](C)[C@@]6(OC[C@]45C(=O)C[C@@H]3[C@@]1(C)C8)OC(C)(C)C[C@H]6O)O[C@](C)(CO)C[C@H]2O [CEPHALOSTATIN 1] | – | 0.4 nM | < 0.1 nM | < 0.1 nM | – | 0.2 nM | 6.3 nM | – | 10 nM | 0.4 nM | 2.5 nM | 1.2 nM | 0.8 nM | < 0.1 nM | < 0.1 nM | –
C[C@@H]1[C@]2(O[C@H]3C=C4[C@@H]5CC[C@H]6Cc7nc8c(nc7C[C@]6(C)[C@H]5C[C@@H](O)[C@]4(C)[C@]31O)C[C@@H]1CC[C@H]3C4=C[C@@H]5O[C@]6(CC[C@](C)(O)CO6)C[C@]5(O)[C@@]4(C)[C@H](O)C[C@@H]3[C@@]1(C)C8)O[C@](C)(CO)C[C@H]2O [CEPHALOSTATIN 7] | – | 138 nM | 31 nM | 11 nM | 7.52 | 25 nM | 271 nM | 7.42 | 480 nM | 37 nM | 27 nM | 50 nM | 16 nM | 23 nM | 7.9 nM | pEC50 (Homo sapiens [9]): 10.28; pEC50 [10]: 9.39; pEC50 (PC-3 [11]): 11.68
C[C@@H]1C2(OC3C=C4C5CCC6Cc7nc8c(nc7C[C@]6(C)C5C[C@@H](O)[C@]4(C)C31O)CC1CCC3C(CC(=O)[C@]45CO[C@@]6(OC(C)(C)C[C@H]6O)[C@@H](C)C4CCC35)[C@@]1(C)C8)O[C@](C)(CO)C[C@H]2O (stereo partly specified) [DIHYDROCEPHALOSTATIN 1] | – | 0.59 nM | 3.6 nM | < 0.1 nM | – | 0.12 nM | 1.1 nM | – | 2.9 nM | 0.17 nM | 3.5 nM | 2.4 nM | 0.8 nM | 0.22 nM | < 0.1 nM | –
COc1cccc2c1C(=O)c1c(O)c3c(c(O)c1C2=O)C[C@@](O)(C(=O)CO)C[C@@H]3O[C@H]1C[C@H](N)[C@H](O)[C@H](C)O1 [DOXORUBICIN] | – | – | – | – | 7.43 | – | – | 6.82 | – | – | – | – | – | – | – | pEC50 (A498 [12]): 8.46; pEC50 (A549 [13]): 8.21; pEC50 (Homo sapiens [9]): 7.73; pEC50 (MIA PaCa-2): 8.20; pEC50 (PC-3 [11]): 7.24
C[C@@H]1[C@@]2(CC[C@](C)(O)CO2)O[C@H]2C=C3[C@@H]4[C@@H](O)C[C@H]5Cc6nc7c(nc6C[C@]5(C)[C@H]4C[C@@H](O)[C@]3(C)[C@]21O)C[C@@H]1CC[C@H]2[C@H]3C[C@@H]4O[C@@]5(CCC(C)(C)O5)C[C@@H]4[C@@]3(C)[C@H](O)C[C@@H]2[C@@]1(C)C7 [RITTERAZINE B] | 9.77 | – | – | < 0.1 nM | – | 0.16 nM | – | 11.68 | – | – | – | – | – | – | < 0.1 nM | GI50 (NCI [14]): 1 nM
C[C@@H]1[C@@]2(CC[C@](C)(O)CO2)O[C@H]2C=C3[C@@H]4[C@@H](O)C[C@H]5Cc6nc7c(nc6C[C@]5(C)[C@H]4C[C@@H](O)[C@]3(C)[C@]21O)C[C@@H]1CC[C@H]2[C@H]3C[C@@H]4O[C@@]5(CCC(C)(C)O5)C[C@@H]4[C@@]3(C)C(=O)C[C@@H]2[C@@]1(C)C7 [RITTERAZINE H] | 7.74 | – | – | – | – | – | – | – | – | – | – | – | – | – | – | –
C[C@@H]1[C@@]2(CC[C@](C)(O)CO2)O[C@H]2C=C3[C@@H]4[C@@H](O)C[C@H]5Cc6nc7c(nc6C[C@]5(C)[C@H]4C[C@@H](O)[C@]3(C)[C@]21O)C[C@@H]1CC[C@H]2C3=C[C@@H]4O[C@]5(CC[C@@](C)(O)CO5)[C@@H](C)[C@]4(O)[C@@]3(C)[C@H](O)C[C@@H]2[C@@]1(C)C7 [RITTERAZINE J] | 7.85 | – | – | – | – | – | – | – | – | – | – | – | – | – | – | –
C[C@@H]1[C@@]2(CC[C@](C)(O)CO2)O[C@H]2C=C3[C@H]4CC[C@H]5Cc6nc7c(nc6C[C@]5(C)[C@H]4C[C@@H](O)[C@]3(C)[C@]21O)C[C@@H]1CC[C@H]2C3=C[C@@H]4O[C@]5(CC[C@@](C)(O)CO5)[C@@H](C)[C@]4(O)[C@@]3(C)[C@H](O)C[C@@H]2[C@@]1(C)C7 [RITTERAZINE K] | 8.00 | 110 nM | 190 nM | 4.1 nM | 7.55 | 4.4 nM | 288 nM | 7.96 | 347 nM | 20 nM | 100 nM | 96 nM | 4.5 nM | 91 nM | 1.4 nM | pEC50 (Homo sapiens [9]): 10.33; pEC50 (MIA PaCa-2): 10.29; pEC50 (PC-3 [11]): 11.68
C[C@@H]1C2(OC3C=C4C5CCC6Cc7nc8c(nc7C[C@]6(C)C5C[C@@H](O)[C@]4(C)C31O)CC1CCC3C4=CC5OC6(CCC(C)(C)O6)[C@@H](C)C5[C@@]4(C)[C@H](O)CC3[C@@]1(C)C8)O[C@](C)(CO)C[C@H]2O (stereo partly specified) [RITTEROSTATIN] | – | 7.4 nM | 3 nM | 0.99 nM | – | 1.6 nM | 65 nM | – | 140 nM | 9.7 nM | 3.4 nM | 14 nM | 3.8 nM | 1.8 nM | 0.1 nM | –
